Experimental data from patent publication US20260144805A1, “CANNABIDIOL COMPOSITIONS FOR USE IN THE TREATMENT OF NEURODEGENERATIVE AND NEUROLOGICAL DISORDERS” (JAZZ PHARMACEUTICALS RESEARCH UK LIMITED, priority 2022, published 2026).

How the values were obtained:
[1] = system: harmaline model of Essential Tremor; assay: Harmaline model of Essential Tremor, subjective tremor score 0-4 (Example 3; DS = DS-D); type: in vivo, rat; conditions: Propranolol 40 mg/kg i.p.
Procedure: All experiments were carried out in male Sprague Dawley rats (˜250 g). Naïve rats were acclimatised to the procedure room in their home cages up to 7 days following arrival at the test facility, with food and water available ad libitum. All animals were weighed at the beginning of the study and assigned to treatment groups (Vehicle n=6, treatment groups n=12/group).
Animals were dosed and tested as per Table G below, across 3 test days. Treatment groups were equally allocated across the 3 days of testing. The animals received either vehicle, DS at 30, 100 or 150 mg/kg (1 mL/kg, i.p.) or propranolol at 40 mg/kg (5 mL/kg, i.p.) (Compound 1), the animals were then dosed with vehicle or Harmaline at 10 mg/kg (5 mL/kg, i.p.) (Compound 2). The animals received DS at 30, 100 or 150 mg/kg (1 mL/kg, i.p.) 40 or 100 min before harmaline, with the first test point 20 mins later to give a pre-treatment time at first test point of 60 and 120 mins. Propanolol was dosed 30 min before harmaline and tested 20, 40 and 60 mins post-harmaline. At all test points post-harmaline, the animals were observed and given a tremor score of 0-4 (as per Table H).
Drug substance (i.e., DS-D, as described in Example 1) was formulated in 1:12:87 Ethanol, Kolliphor HS & Saline.
Propranolol (40 mg/kg i.p.) served as a disease-relevant comparator.
30 mg/kg drug substance required 1 hr pre-treatment whilst 100 and 150 mg/kg drug substance required 2 hr pre-treatment.
Behavioural observation data was analysed using a repeated measures two-way ANOVA followed by Dunnett's multiple comparison analysis (GraphPad, Prism v9.0.0) (p<0.05 considered significant).

[2] = system: valproic acid-induced autism spectrum disorder (ASD) mouse model; assay: Valproic acid-induced ASD model, bottle-brush test (irritability) (Example 6, Table P); type: in vivo; design: key: +: improvement; Ø: no change; −: not tested
From the text: (§1) The main objective of the following study was to assess the effect of the drug substance (DS) of Example 1 in ameliorating autism-like behavior in valproic acid-induced autism spectrum disorder (ASD) mouse model (FIGS. 19A-B).

[3] = system: valproic acid-induced autism spectrum disorder (ASD) mouse model; assay: Valproic acid-induced ASD model, autism-like behaviors, DS vs sCBD and risperidone (Example 6, Table P); type: in vivo; design: key to Adult open field hyperactivity (spontaneous LMA on day 1) / Adult open field hyperactivity (LMA on day 2) / Adult marble burying / Adult grooming / Juvenile vocalisation: +: improvement; Ø: no change; −: not tested
From the text: as §1

[4] = system: valproic acid-induced autism spectrum disorder (ASD) mouse model; assay: Valproic acid-induced ASD model, social behavior (Example 6, Table P); type: in vivo; design: key: +: improvement; Ø: no change; −: not tested
From the text: as §1

[5] = system: rat model of essential tremor; assay: Harmaline rat model of essential tremor, observed tremor score (Example 4); type: in vivo; design: key to Observed tremor score, significance vs harmaline + vehicle: ns = not significant; *, **, ***, **** = statistical significance at p < 0.05, 0.01, 0.001, 0.0001 respectively; *, **, ***, **** = statistical significance at p < 0.05, 0.01, 0.001, 0.0001 respectively; *, **, ***, **** = statistical significance at p < 0.05, 0.01, 0.001, 0.0001 respectively; *, **, ***, **** = statistical significance at p < 0.05, 0.01, 0.001, 0.0001 respectively; conditions: for Observed tremor score, significance vs harmaline + vehicle: I.P.
From the text: (§2) The following study was designed to assess the drug substance (DS) efficacy in the rat model of essential tremor. Synthetic CBD (sCBD I.P.) and DS I.P. and DS. P.O and compared observing tremor score, motion power percentage (MPP), tremor index (TI), number of tremors, total time spent in tremor, and average tremor length.
(§3) The results are summarized in Tables J-M. All comparisons were made to the harmaline+vehicle group within each study.

[6] = system: rat model of essential tremor; assay: Harmaline rat model of essential tremor, tremor plate: motion power percentage, tremor index, number of tremors, time in tremor, tremor length (Example 4); type: in vivo; design: key to Motion Power Percentage, significance vs harmaline + vehicle / Number of tremors, significance vs harmaline + vehicle / Total time in tremor, significance vs harmaline + vehicle / Average tremor length, significance vs harmaline + vehicle: ns = not significant; *, **, ***, **** = statistical significance at p < 0.05, 0.01, 0.001, 0.0001 respectively; *, **, ***, **** = statistical significance at p < 0.05, 0.01, 0.001, 0.0001 respectively; *, **, ***, **** = statistical significance at p < 0.05, 0.01, 0.001, 0.0001 respectively; *, **, ***, **** = statistical significance at p < 0.05, 0.01, 0.001, 0.0001 respectively; conditions: for Average tremor length, significance vs harmaline + vehicle / Number of tremors, significance vs harmaline + vehicle / Total time in tremor, significance vs harmaline + vehicle / Motion Power Percentage, significance vs harmaline + vehicle: I.P.
From the text: as §2, §3

CC(C)NCC(O)COc1cccc2ccccc12 (centres unmarked) [Propranolol]
deficits induced by harmaline vs vehicle/harmaline group ([1]; 20, 40 and 60 min post-harmaline): significantly attenuated | Tremor Score (median ± IQR) ([1]; 20 mins post-harmaline): 0.0 ± 0.0 | Tremor Score (median ± IQR) ([1]; 40 mins post-harmaline): 0.0 ± 0.0 | Tremor Score (median ± IQR) ([1]; 60 mins post-harmaline): 0.0 ± 0.75

C=C(C)[C@@H]1CCC(C)=C[C@H]1c1c(O)cc(CCCCC)cc1O [sCBD, 2-[(1R,6R)-3-Methyl-6-(1-methylethenyl)-2-cyclohexen-1-yl]-5-pentyl-1,3-benzenediol]
Adult bottle brush irritability test ([2]; 9.21 mg/kg I.P.): Ø | Juvenile bottle brush irritability test ([2]; 9.21 mg/kg I.P.): Ø | Adult bottle brush irritability test ([2]; 27.63 mg/kg I.P.): Ø | Juvenile bottle brush irritability test ([2]; 27.63 mg/kg I.P.): + | Adult bottle brush irritability test ([2]; 92.11 mg/kg I.P.): + | Juvenile bottle brush irritability test ([2]; 92.11 mg/kg I.P.): + | Adult grooming ([3]; 9.21 mg/kg I.P.): + | Adult marble burying ([3]; 9.21 mg/kg I.P.): Ø | Adult open field hyperactivity (LMA on day 2) ([3]; 9.21 mg/kg I.P.): Ø | Adult open field hyperactivity (spontaneous LMA on day 1) ([3]; 9.21 mg/kg I.P.): + | Adult grooming ([3]; 27.63 mg/kg I.P.): + | Adult marble burying ([3]; 27.63 mg/kg I.P.): + | Adult open field hyperactivity (LMA on day 2) ([3]; 27.63 mg/kg I.P.): + | Adult open field hyperactivity (spontaneous LMA on day 1) ([3]; 27.63 mg/kg I.P.): + | Adult grooming ([3]; 92.11 mg/kg I.P.): + | Adult marble burying ([3]; 92.11 mg/kg I.P.): + | Adult open field hyperactivity (LMA on day 2) ([3]; 92.11 mg/kg I.P.): + | Adult open field hyperactivity (spontaneous LMA on day 1) ([3]; 92.11 mg/kg I.P.): + | Juvenile vocalisation ([3]; 92.11 mg/kg I.P.): + | minimum effective dose in social behavior and after the bottle-brush test (irritability) ([3]; i.p.): 92.11 mg/kg | Adult active social behavior ([4]; 9.21 mg/kg I.P.): Ø | Juvenile play behavior ([4]; 9.21 mg/kg I.P.): Ø | Adult active social behavior ([4]; 27.63 mg/kg I.P.): Ø | Juvenile play behavior ([4]; 27.63 mg/kg I.P.): Ø | Adult active social behavior ([4]; 92.11 mg/kg I.P.): + | Juvenile play behavior ([4]; 92.11 mg/kg I.P.): + | Minimum dose (as CBD) decreasing the observed tremor score ([5]; DS oral and intraperitoneal, sCBD i.p.): 27 mg/kg | Observed tremor score, significance vs harmaline + vehicle ([5]; dose 9.1 mg/kg, 20 min): ns | Observed tremor score, significance vs harmaline + vehicle ([5]; dose 9.1 mg/kg, 40 min): ns | Observed tremor score, significance vs harmaline + vehicle ([5]; dose 9.1 mg/kg, 60 min): ns | Observed tremor score, significance vs harmaline + vehicle ([5]; dose 27.3 mg/kg, 20 min): ns | Observed tremor score, significance vs harmaline + vehicle ([5]; dose 27.3 mg/kg, 40 min): * (*, **, ***, **** = statistical significance at p < 0.05, 0.01, 0.001, 0.0001 respectively) | Observed tremor score, significance vs harmaline + vehicle ([5]; dose 27.3 mg/kg, 60 min): * (*, **, ***, **** = statistical significance at p < 0.05, 0.01, 0.001, 0.0001 respectively) | Observed tremor score, significance vs harmaline + vehicle ([5]; dose 54.7 mg/kg, 20 min): ** (*, **, ***, **** = statistical significance at p < 0.05, 0.01, 0.001, 0.0001 respectively) | Observed tremor score, significance vs harmaline + vehicle ([5]; dose 54.7 mg/kg, 40 min): * (*, **, ***, **** = statistical significance at p < 0.05, 0.01, 0.001, 0.0001 respectively) | Observed tremor score, significance vs harmaline + vehicle ([5]; dose 54.7 mg/kg, 60 min): * (*, **, ***, **** = statistical significance at p < 0.05, 0.01, 0.001, 0.0001 respectively) | Observed tremor score, significance vs harmaline + vehicle ([5]; dose 91.1 mg/kg, 20 min): * (*, **, ***, **** = statistical significance at p < 0.05, 0.01, 0.001, 0.0001 respectively) | Observed tremor score, significance vs harmaline + vehicle ([5]; dose 91.1 mg/kg, 40 min): ns | Observed tremor score, significance vs harmaline + vehicle ([5]; dose 91.1 mg/kg, 60 min): ns | Average tremor length, significance vs harmaline + vehicle ([6]; dose 9.1 mg/kg): ns | Number of tremors, significance vs harmaline + vehicle ([6]; dose 9.1 mg/kg): ns | Total time in tremor, significance vs harmaline + vehicle ([6]; dose 9.1 mg/kg): ns | Motion Power Percentage, significance vs harmaline + vehicle ([6]; dose 9.1 mg/kg, 20 min): ns | Motion Power Percentage, significance vs harmaline + vehicle ([6]; dose 9.1 mg/kg, 40 min): ns | Motion Power Percentage, significance vs harmaline + vehicle ([6]; dose 9.1 mg/kg, 60 min): ns | Average tremor length, significance vs harmaline + vehicle ([6]; dose 27.3 mg/kg): ns | Number of tremors, significance vs harmaline + vehicle ([6]; dose 27.3 mg/kg): ns | Total time in tremor, significance vs harmaline + vehicle ([6]; dose 27.3 mg/kg): ns | Motion Power Percentage, significance vs harmaline + vehicle ([6]; dose 27.3 mg/kg, 20 min): ns | Motion Power Percentage, significance vs harmaline + vehicle ([6]; dose 27.3 mg/kg, 40 min): ns | Motion Power Percentage, significance vs harmaline + vehicle ([6]; dose 27.3 mg/kg, 60 min): ns | Average tremor length, significance vs harmaline + vehicle ([6]; dose 54.7 mg/kg): ns | Number of tremors, significance vs harmaline + vehicle ([6]; dose 54.7 mg/kg): ns | Total time in tremor, significance vs harmaline + vehicle ([6]; dose 54.7 mg/kg): ns | Motion Power Percentage, significance vs harmaline + vehicle ([6]; dose 54.7 mg/kg, 20 min): ns | Motion Power Percentage, significance vs harmaline + vehicle ([6]; dose 54.7 mg/kg, 40 min): ns | Motion Power Percentage, significance vs harmaline + vehicle ([6]; dose 54.7 mg/kg, 60 min): ns | Average tremor length, significance vs harmaline + vehicle ([6]; dose 91.1 mg/kg): ns | Number of tremors, significance vs harmaline + vehicle ([6]; dose 91.1 mg/kg): ns | Total time in tremor, significance vs harmaline + vehicle ([6]; dose 91.1 mg/kg): ns | Motion Power Percentage, significance vs harmaline + vehicle ([6]; dose 91.1 mg/kg, 20 min): ns | Motion Power Percentage, significance vs harmaline + vehicle ([6]; dose 91.1 mg/kg, 40 min): ns | Motion Power Percentage, significance vs harmaline + vehicle ([6]; dose 91.1 mg/kg, 60 min): * (*, **, ***, **** = statistical significance at p < 0.05, 0.01, 0.001, 0.0001 respectively) | Dose (as CBD) from which MPP and TI were significantly reduced ([6]; intraperitoneal, sCBD only at one time point (60 min)): 91 mg/kg
